{
  "source": "patent US8309068B2",
  "about": "“Isolated polypeptides and methods of improving muscle strength” (Myostin Therapeutics Pty Ltd., priority 2006, dated 2012)",
  "key": {"[1]": {"test_system": "myostatin", "assay": "Myoblast chemotaxis assay, recovery of myostatin chemo-inhibition by antagonists", "type": "cell-based", "description": "Primary myoblasts were cultured from the hind limb muscle of young (4 to 6 week old) or old (24 month old) mice, according to the published protocols (Allen et al., 1997; Partridge, 1997). Briefly, muscles were minced, and digested in 0.2% collagenase type 1A for 90 min. Cultures were enriched for myoblasts by pre-plating on uncoated plates for 3 hours. Myoblast cultures were maintained in growth media (GM) supplemented with 20% fetal calf serum (FCS), 10% HS and 1% CEE on 10% Matrigel coated plates, at 37° C./5% CO2. The extent of culture purity was assessed by flow cytometry analysis of MyoD expression after 48 hours in culture. Cells were harvested using trypsin, suspended at a concentration of 10^6 cells/200 μl and fixed overnight in 5 ml 70% ethanol at −20° C. Staining was performed for 30 min at room temperature using rabbit polyclonal anti-MyoD, 1:200 (Santa Cruz), followed by Alexa fluor 488 anti-rabbit conjugate, 1:500 (Molecular Probes). Analysis was carried out in duplicate with 10^4 cell events collected in each assay. Debris was excluded by gating on forward and side scatter profiles. Cells were analyzed by FACScan (Becton Dickinson). Macrophages were isolated by a peritoneal lavage technique and/or derived from bone marrow Zymosan-activated mouse serum (ZAMS) was prepared according to the published protocol (Colditz and Movat, 1984).\nFor the chemotaxis assay of myoblasts, a first assay was carried out on myoblasts from 2 year old mice as follows. DMEM containing 2% horse serum (HS), 5% chicken embryo extract (CEE) plus dialysis buffer was used as positive control. […] Plain DMEM was used as negative control. On a 24-well plate, the bottom wells were filled with test or control media. Seventy-five thousand cells were added to the top wells containing polyethylene terephthalate (PET) 0.8 μm membranes coated with 1% Matrigel. The plate was incubated for 7 h at 37° C., 5% CO2. […] The membrane was then fixed, stained in Gill's hematoxylin and wet mounted on slides. Migrated cells were counted on four representative fields per membrane and the average number plotted. The results are shown in FIG. 6 (myoblast migration from old mice) and FIG. 7 (myoblast migration from young mice)."}, "[2]": {"test_system": "bone marrow derived macrophages", "assay": "Migration of bone marrow derived macrophages from mice treated in vivo", "details": "6 μg/g BW SC three times a week for six weeks; ZAMS 11%, 22% or 33%; vs saline", "source_text": "For chemotaxis analysis of macrophages bone marrow was isolated from saline treated (control) and myostatin antagonist 300 treated mice (as described in example 4, below), and plated at 5×10^6 cells/plate in DMEM 10% FBS plus 10% L929 conditioned medium (containing CSF-1) for 5 days to induce macrophage differentiation. The macrophages were then harvested and used in the assay. Three concentrations of DMEM containing Zymosan-activated mouse serum (ZAMS) was used, 33% (optimum chemo-attractant concentration), 22% and 11% (suboptimal chemo-attractant concentrations). Plain DMEM was used as negative control. On a 24-well plate, the bottom wells were filled with test or control media. Seventy-five thousand cells were added to the top wells containing polyethylene terephthalate (PET) 0.8 μm membranes. The plate was incubated for 4h at 37° C., 5% CO2. […] The membrane was then fixed, stained in Gill's hematoxylin and wet mounted on slides. Migrated cells were counted on four representative fields per membrane and the average number plotted.\nAn animal trial was conducted to assess the effects of myostatin antagonist 300 in improving muscle function. Sixteen month old mice were divided into two groups of ten. […] The functional improvement of sarcopenic muscle was assessed by measuring grip strength of mice at the end of trial. Grip strength was measured in Newtons."}, "[3]": {"test_system": "primary myoblasts", "assay": "Migration of primary myoblasts isolated from mice treated in vivo", "details": "6 μg/g BW SC three times a week for six weeks; three chemo-attractant media; vs saline", "source_text": "In a second myoblast migration assay, primary myoblasts isolated form hind limb of saline treated (control) and myostatin antagonist 300 treated mice (as described in example 4 below). Three chemo-attractant media were used: DMEM containing 2% horse serum (HS) and 5% chicken embryo extract (CEE) (optimal chemo-attractant); DMEM containing only 5% CEE or DMEM containing only 2% HS (both suboptimal chemo-attractants). Plain DMEM was used as negative control. On a 24-well plate, the bottom wells were filled with test or control media. Seventy-five thousand cells were added to the top wells. The plate was incubated for 7h at 37° C., 5% CO2. […] The membrane was then fixed, stained in Gill's hematoxylin and wet mounted on slides. Migrated cells were counted on four representative fields per membrane and the average number plotted.\nAn animal trial was conducted to assess the effects of myostatin antagonist 300 in improving muscle function. Sixteen month old mice were divided into two groups of ten. While the control group received saline subcutaneous (SC) injections, the other group received myostatin antagonist 300 SC at 6 μg/gram of BW three times a week for six weeks. The functional improvement of sarcopenic muscle was assessed by measuring grip strength of mice at the end of trial. Grip strength was measured in Newtons."}, "[4]": {"test_system": "mdx mice", "assay": "Mdx in vivo trial", "description": "An in vivo trial was performed in which 4 week old mdx mice were injected 3× per week with 300 (6 μg/g) or saline (10 mice in each treatment) for 4 weeks. Body weights were recorded regularly and blood was collected for creatine kinase activity to assess the extent of muscle damage. Grip tests were performed as a measure of strength. After 4 weeks of treatment mice were culled and individual hind limb muscles collected for protein expression analysis—Pax7 & MyoD (satellite cell activation/myogenesis), and histology.\nProtein was extracted from three hind limb muscles, biceps femoris, tibialis anterior and gastrocnemius. 15 μg of protein was separated on 4-12% SDS PAGE, transferred to nitrocellulose membrane and immunoprobed with Pax7 and MyoD.\nTen micron transverse sections were cut from the midbelly region of each m. gastrocnemius. Muscle sections were stained with haematoxylin and eosin (H & E) to visualise and measure areas of necrosis and regeneration. These areas were analysed using an Olympus BX50 microscope (Olympus, Tokyo, Japan), a SPOT-RT 4.01 camera and software (Diagnostic Instruments, Sterling Heights, Mich.). Areas were measured using Image-Pro Plus (Media Cybernetics, Silver Spring, Md.).\nBlood was collected by tail-bleeding into 75 mm heparinised microhematocrit tubes. Tubes were centrifuged in a Micro-hematocrit centrifuge (Adams) for 5 minutes and then the plasma removed. The recovered plasma was centrifuged again at 2500×g for 5 minutes and then stored at −80° C. until analysis. Plasma was separated from the red blood cells within 2 hours of blood collection to minimise hemolysis. Creatine kinase activity was determined using CK N-acetyl-L-cysteine creatine kinase kit (Beckman Coulter) within 6 weeks of plasma collection. Muscle strength was assessed using a grip strength apparatus (MK-380S, Muromachi; Tokyo, Japan) at the beginning, mid-point and end of the trial. The maximum force exerted by a mouse while being pulled backward by the tail is recorded in Newtons. The mean of three grip tests for each mouse was calculated and the mean maximal force of 10 mice per group was determined."}, "[5]": {"details": "6 μg/g 3x per week for 4 weeks, biceps femoris, tibialis anterior and gastrocnemius"}, "[6]": {"details": "m. gastrocnemius sections, H & E"}},
  "note": "Where no end group is shown, it is not given here.",
  "data": [
    {"substance": "myostatin antagonist 300: recombinant peptide, amino acids 267-300 of bovine myostatin, with N terminal and C terminal tag (SEQ ID NO: 6) (DFGLDCDEHSTESRCCRYPLTVDFEAFGWDWIIA; cysteine pairing not given here; also: N- and C-terminal tags; listed as Homo sapiens)", "values": [
      {"measurement": "rescue of chemo-inhibiting effects of myostatin on myoblast migration", "setting": "[1]; myoblasts from old (2 year old) mice, antagonist added at 5 μg/ml, myostatin 2.5 μg/ml", "result": "rescued to levels similar to those observed in the control"},
      {"measurement": "rescue of chemo-inhibiting effects of myostatin on myoblast migration", "setting": "[1]; myoblasts from young (1 month old) mice", "result": "rescued the migration of myostatin cells to control levels"},
      {"measurement": "migratory ability of macrophages isolated from treated mice", "setting": "[2]", "result": "significantly increased"},
      {"measurement": "migration rates of myoblasts isolated from treated mice", "setting": "[3]", "result": "significantly increased migration rates"},
      {"measurement": "MyoD protein level (western blot)", "setting": "[4]; [5]", "result": "substantial upregulation"},
      {"measurement": "Pax7 protein level (western blot)", "setting": "[4]; [5]", "result": "substantial upregulation"},
      {"measurement": "change in plasma creatine kinase activity from commencement to completion of the trial", "setting": "[4]; 4 weeks, vs saline", "result": "larger decrease"},
      {"measurement": "grip strength", "setting": "[4]; after 4 weeks of treatment", "result": "significant increase"},
      {"measurement": "percentage necrotic area of muscle", "setting": "[4]; [6]", "result": "Reduced Necrosis"},
      {"measurement": "percentage regenerating area of muscle", "setting": "[4]; [6]", "result": "Increased Regeneration"}
    ]}
  ]
}
